In ChEMBL document CHEMBL3228011, “trans-5-(3,3,3-Trifluoro-1-propenyl-)-2'-deoxyuridylate: a mechanism-based inhibitor of thymidylate synthetase” (J Med Chem, 1979):
The source made the active and inactive calls. No cut-off for these calls is given here.

Tests used:
Thymidylate synthase [1] = target: T1, Thymidylate synthase (Homo sapiens, UniProt P04818); experiment: Competitive inhibition of thymidylate synthetase (unknown origin) in presence of 5,10-methylenetetrahydrofolate
Target sequence in this assay (P04818 whole entry): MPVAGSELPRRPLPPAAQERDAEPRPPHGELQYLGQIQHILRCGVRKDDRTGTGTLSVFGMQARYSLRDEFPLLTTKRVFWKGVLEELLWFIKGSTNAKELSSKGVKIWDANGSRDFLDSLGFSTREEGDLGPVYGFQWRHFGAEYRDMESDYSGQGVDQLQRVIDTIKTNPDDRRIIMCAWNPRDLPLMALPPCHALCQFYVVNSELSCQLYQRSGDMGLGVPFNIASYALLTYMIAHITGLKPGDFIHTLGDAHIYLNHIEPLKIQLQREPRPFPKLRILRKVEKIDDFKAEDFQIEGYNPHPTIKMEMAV

Thymidylate synthase [2] = target: T1, Thymidylate synthase; experiment: Binding affinity to thymidylate synthetase (unknown origin)
Target sequence in this assay (P04818 whole entry): as above

Thymidylate synthase [3] = target: T1, Thymidylate synthase; experiment: Inhibition of thymidylate synthetase (unknown origin) assessed as decrease of first order enzyme activity in absence of 5,10-methylenetetrahydrofolate
Target sequence in this assay (P04818 2-313 limits assumed): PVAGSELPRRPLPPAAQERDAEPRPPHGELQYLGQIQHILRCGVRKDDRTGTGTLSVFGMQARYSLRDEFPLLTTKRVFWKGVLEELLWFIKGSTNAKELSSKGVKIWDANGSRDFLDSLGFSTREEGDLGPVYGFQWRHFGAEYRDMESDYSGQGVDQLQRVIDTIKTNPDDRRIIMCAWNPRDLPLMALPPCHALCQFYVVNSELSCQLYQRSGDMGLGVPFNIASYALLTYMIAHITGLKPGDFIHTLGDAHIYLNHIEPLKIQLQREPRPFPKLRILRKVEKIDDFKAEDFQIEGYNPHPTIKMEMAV

Thymidylate synthase [4] = target: T1, Thymidylate synthase; experiment: Inhibition of thymidylate synthetase (unknown origin) assessed as decrease of first order enzyme activity in absence of 5,10-methylenetetrahydrofolate and presence of dUMP
Target sequence in this assay (P04818 2-313 limits assumed): as above

Ki (Thymidylate synthase [1]): 8.6 µM
Kd (Thymidylate synthase [2]): 25 µM
inhibition (Thymidylate synthase [3]): Active
inhibition (Thymidylate synthase [4]): inactive
SMILES: O=c1[nH]c(=O)n([C@H]2C[C@H](O)[C@@H](COP(=O)(O)O)O2)cc1/C=C/C(F)(F)F
